The text below walks through data of patent US20090304692A1, “TRIAZINE COMPOUNDS AS PI3 KINASE AND MTOR INHIBITORS” (Wyeth, priority 2008, published 2009).

For one test, the target named is PI3K-α (Homo sapiens, UniProt P42336). Kind of test: PI3K-alpha fluorescence polarization assay. To be noted: read-out: IC50 PI3Kα. Background: In fluorescence polarisation assays a small probe gives low polarisation when free and higher when bound to something large.
The next test has as its target Human mTOR (FLAG-TOR) (Homo sapiens, UniProt P42345). In words: mTOR kinase assay (DELFIA format, purified enzyme). It is filed as biochemical. To be noted: read-out: IC50 mTOR.
Test [1] has as its system human prostate LNCap tumor cell line. Kind of test: In vitro cell culture growth assay (MTS), LNCap. To be noted: Homo sapiens, LNCaP, 72 h, read-out: IC50 LNCap.
The target of a further test is PI3K-γ (Homo sapiens, UniProt P48736). Kind of test: PI3K-gamma fluorescence polarization assay.

Several values for one entry are separate records, joined by “and”; a condition that tells them apart may be missing. Equal values may be shown once. Read-outs that look alike come from different tables or passages of the source.

PI3K-α, sequence (P42336 whole entry, species assumed): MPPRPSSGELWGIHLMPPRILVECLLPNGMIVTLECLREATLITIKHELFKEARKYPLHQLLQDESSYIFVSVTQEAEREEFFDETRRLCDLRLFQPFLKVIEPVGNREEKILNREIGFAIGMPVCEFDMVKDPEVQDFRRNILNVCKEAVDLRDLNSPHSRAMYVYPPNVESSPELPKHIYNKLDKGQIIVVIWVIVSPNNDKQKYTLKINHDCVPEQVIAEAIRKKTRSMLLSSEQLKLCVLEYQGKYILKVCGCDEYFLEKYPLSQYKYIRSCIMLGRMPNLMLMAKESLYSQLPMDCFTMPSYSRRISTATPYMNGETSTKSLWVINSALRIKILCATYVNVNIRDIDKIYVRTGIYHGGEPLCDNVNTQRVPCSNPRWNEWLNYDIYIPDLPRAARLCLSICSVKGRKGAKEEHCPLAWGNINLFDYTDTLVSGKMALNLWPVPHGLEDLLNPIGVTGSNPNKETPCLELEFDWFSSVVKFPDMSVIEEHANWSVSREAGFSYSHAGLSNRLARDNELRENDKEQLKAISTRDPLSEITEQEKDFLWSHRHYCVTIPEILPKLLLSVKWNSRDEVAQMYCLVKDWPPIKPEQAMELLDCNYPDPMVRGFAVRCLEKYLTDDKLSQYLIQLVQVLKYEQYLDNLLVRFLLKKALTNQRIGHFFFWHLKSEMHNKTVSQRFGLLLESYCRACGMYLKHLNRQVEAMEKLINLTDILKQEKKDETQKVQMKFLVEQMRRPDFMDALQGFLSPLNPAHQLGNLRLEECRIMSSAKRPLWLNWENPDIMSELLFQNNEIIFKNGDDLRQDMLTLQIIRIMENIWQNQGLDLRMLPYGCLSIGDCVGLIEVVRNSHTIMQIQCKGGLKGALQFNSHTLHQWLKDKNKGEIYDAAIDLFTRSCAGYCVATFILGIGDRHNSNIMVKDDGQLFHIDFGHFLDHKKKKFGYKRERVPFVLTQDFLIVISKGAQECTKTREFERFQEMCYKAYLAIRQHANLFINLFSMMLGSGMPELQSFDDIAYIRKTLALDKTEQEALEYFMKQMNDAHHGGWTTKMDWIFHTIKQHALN
PI3K-α, sequence (P27986 whole entry partner, species assumed): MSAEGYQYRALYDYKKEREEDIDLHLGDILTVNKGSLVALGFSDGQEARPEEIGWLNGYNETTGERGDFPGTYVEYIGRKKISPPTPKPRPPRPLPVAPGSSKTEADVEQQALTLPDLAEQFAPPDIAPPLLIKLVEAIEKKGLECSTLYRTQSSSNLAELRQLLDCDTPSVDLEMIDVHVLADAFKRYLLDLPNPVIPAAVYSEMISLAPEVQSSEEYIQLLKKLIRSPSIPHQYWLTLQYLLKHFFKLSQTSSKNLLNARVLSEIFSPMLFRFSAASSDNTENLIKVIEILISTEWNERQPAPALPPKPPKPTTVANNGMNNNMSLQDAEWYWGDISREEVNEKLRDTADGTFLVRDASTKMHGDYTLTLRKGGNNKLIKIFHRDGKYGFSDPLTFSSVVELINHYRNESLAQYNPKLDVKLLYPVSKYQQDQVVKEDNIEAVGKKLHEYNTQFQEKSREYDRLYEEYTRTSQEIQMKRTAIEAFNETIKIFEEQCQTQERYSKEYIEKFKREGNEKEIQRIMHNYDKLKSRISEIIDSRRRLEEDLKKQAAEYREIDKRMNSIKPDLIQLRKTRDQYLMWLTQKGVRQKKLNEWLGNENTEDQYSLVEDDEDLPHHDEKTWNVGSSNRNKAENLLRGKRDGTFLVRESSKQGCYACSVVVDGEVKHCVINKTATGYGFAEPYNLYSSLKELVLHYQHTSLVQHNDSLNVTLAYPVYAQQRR
PI3K-γ, sequence (P48736 whole entry, species assumed): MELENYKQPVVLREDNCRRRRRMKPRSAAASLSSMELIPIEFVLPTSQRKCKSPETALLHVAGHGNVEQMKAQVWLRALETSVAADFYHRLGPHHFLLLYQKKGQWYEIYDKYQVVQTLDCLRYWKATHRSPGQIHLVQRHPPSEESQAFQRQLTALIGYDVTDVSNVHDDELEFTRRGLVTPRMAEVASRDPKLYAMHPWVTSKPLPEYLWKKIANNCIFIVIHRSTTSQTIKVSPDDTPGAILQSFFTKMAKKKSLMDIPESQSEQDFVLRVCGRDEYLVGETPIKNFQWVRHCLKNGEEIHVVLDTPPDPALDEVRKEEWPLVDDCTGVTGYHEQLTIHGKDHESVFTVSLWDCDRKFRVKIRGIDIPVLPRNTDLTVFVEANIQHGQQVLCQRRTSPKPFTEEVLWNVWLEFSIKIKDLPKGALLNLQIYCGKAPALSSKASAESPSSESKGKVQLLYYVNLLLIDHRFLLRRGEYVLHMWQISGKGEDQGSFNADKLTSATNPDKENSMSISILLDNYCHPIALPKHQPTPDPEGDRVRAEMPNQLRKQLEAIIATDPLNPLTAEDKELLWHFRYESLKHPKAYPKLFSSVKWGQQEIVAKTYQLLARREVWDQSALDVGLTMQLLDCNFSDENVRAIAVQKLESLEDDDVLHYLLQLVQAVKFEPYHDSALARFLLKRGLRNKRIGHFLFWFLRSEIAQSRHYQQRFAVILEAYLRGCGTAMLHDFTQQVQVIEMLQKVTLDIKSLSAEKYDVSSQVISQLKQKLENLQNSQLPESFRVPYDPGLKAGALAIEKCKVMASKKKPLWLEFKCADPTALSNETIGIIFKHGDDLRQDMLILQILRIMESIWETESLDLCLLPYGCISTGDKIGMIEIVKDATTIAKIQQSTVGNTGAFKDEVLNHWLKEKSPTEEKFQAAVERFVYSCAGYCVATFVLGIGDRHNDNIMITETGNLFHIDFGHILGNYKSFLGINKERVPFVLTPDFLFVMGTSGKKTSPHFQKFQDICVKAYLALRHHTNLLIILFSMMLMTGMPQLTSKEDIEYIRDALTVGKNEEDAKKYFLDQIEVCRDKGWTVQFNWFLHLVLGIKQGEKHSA
Human mTOR (FLAG-TOR), sequence (P42345 1360-2549 limits assumed): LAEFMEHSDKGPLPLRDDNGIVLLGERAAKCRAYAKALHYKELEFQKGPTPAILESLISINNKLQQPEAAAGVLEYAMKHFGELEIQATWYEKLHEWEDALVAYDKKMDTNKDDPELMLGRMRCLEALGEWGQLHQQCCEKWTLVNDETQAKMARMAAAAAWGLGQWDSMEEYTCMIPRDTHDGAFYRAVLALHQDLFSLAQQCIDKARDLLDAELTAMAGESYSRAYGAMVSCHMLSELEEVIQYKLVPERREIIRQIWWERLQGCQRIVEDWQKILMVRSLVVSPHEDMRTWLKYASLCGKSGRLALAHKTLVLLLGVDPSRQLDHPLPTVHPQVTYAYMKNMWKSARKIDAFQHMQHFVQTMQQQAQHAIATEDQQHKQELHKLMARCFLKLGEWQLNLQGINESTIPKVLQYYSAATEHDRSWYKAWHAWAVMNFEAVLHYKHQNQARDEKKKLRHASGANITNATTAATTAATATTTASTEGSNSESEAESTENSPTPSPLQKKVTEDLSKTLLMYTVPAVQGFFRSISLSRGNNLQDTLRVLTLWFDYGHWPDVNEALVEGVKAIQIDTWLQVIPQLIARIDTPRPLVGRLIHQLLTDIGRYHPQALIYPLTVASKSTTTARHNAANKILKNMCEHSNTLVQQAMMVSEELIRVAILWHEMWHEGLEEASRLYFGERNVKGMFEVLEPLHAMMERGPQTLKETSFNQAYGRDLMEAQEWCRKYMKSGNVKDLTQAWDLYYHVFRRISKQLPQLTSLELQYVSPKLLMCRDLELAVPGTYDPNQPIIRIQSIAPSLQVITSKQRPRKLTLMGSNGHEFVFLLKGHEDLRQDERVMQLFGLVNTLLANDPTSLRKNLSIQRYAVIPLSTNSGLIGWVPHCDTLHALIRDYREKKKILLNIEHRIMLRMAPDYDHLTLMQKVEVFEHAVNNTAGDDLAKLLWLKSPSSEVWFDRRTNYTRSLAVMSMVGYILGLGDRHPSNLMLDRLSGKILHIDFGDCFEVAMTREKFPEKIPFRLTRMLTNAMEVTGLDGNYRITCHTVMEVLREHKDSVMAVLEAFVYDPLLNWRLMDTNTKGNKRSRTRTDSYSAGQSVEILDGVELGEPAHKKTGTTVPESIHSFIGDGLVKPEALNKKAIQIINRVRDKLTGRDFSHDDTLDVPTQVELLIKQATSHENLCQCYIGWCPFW

Consider `CN1CCN(c2ccc(Nc3nc(-c4ccc(NC(=O)NCCF)cc4)nc(N4CC5CCC(C4)O5)n3)cc2)CC1` [Example 315, 1-(2-fluoroethyl)-3-{4-[4-{[4-(4-methylpiperazin-1-yl)phenyl]amino}-6-(8-oxa-3-azabicyclo[3.2.1]oct-3-yl)-1,3,5-triazin-2-yl]phenyl}urea], for which the IC50 (usually the concentration needed to halve the response being measured) on PI3K-α is 1100 nM; on Human mTOR (FLAG-TOR), 5 nM and 5.8 nM; in test [1], 300 nM; at PI3K-γ (read-out: IC50 PI3Kγ), 7900 nM.
For `CN1CCN(c2ccc(Nc3nc(-c4ccc(NC(=O)NC5CC5)cc4)nc(N4CC5CCC(C4)O5)n3)cc2)CC1` [Example 316, 1-cyclopropyl-3-{4-[4-{[4-(4-methylpiperazin-1-yl)phenyl]amino}-6-(8-oxa-3-azabicyclo[3.2.1]oct-3-yl)-1,3,5-triazin-2-yl]phenyl}urea], the IC50 on PI3K-α is 1410 nM; at Human mTOR (FLAG-TOR) it was 71 nM and 11 nM; in test [1], 320 nM; at PI3K-γ (read-out: IC50 PI3Kγ), 2690 nM.
As for `CN1CCN(c2ccc(Nc3nc(-c4ccc(NC(=O)Nc5ccccc5)cc4)nc(N4CC5CCC(C4)O5)n3)cc2)CC1` [Example 319, 1-{4-[4-{[4-(4-methylpiperazin-1-yl)phenyl]amino}-6-(8-oxa-3-azabicyclo[3.2.1]oct-3-yl)-1,3,5-triazin-2-yl]phenyl}-3-phenylurea], the IC50 at PI3K-α was 80 nM; on PI3K-α (listed as 335) it was 81 nM; at Human mTOR (FLAG-TOR), 4.4 nM and 4 nM; in test [1] it was 220 nM; on PI3K-γ (read-out: IC50 PI3Kγ), 1450 nM; on PI3K-γ (read-out: IC50 PI3Kγ, listed as 335) it was 144 nM.
On to `CNC(=O)Nc1ccc(-c2nc(Nc3ccc(N4CCNCC4)cc3)nc(N3CC4CCC(C3)O4)n2)cc1` [Example 325, 1-methyl-3-(4-{4-(8-oxa-3-azabicyclo[3.2.1]oct-3-yl)-6-[(4-piperazin-1-ylphenyl)amino]-1,3,5-triazin-2-yl}phenyl)urea], for which the IC50 turned out to be 74 nM at PI3K-α; 69 nM on PI3K-α (listed as 354); 4.6 nM on Human mTOR (FLAG-TOR); 310 nM in test [1]; 6240 nM at PI3K-γ (read-out: IC50 PI3Kγ); 6220 nM on PI3K-γ (read-out: IC50 PI3Kγ, listed as 354).
Regarding `O=C(Nc1ccc(-c2nc(Nc3ccc(N4CCNCC4)cc3)nc(N3CC4CCC(C3)O4)n2)cc1)NC1CC1` [Example 326, 1-cyclopropyl-3-(4-{4-(8-oxa-3-azabicyclo[3.2.1]oct-3-yl)-6-[(4-piperazin-1-ylphenyl)amino]-1,3,5-triazin-2-yl}phenyl)urea], the IC50 on PI3K-α was 830 nM; on Human mTOR (FLAG-TOR), 12.2 nM and 12 nM; in test [1], 580 nM; on PI3K-γ (read-out: IC50 PI3Kγ), 6190 nM.
Take `O=C(NCCF)Nc1ccc(-c2nc(Nc3ccc(N4CCNCC4)cc3)nc(N3CC4CCC(C3)O4)n2)cc1` [Example 327, 1-(2-fluoroethyl)-3-(4-{4-(8-oxa-3-azabicyclo[3.2.1]oct-3-yl)-6-[(4-piperazin-1-ylphenyl)amino]-1,3,5-triazin-2-yl}phenyl)urea]: the IC50 at PI3K-α is 394 nM; at Human mTOR (FLAG-TOR), 6.3 nM; in test [1] it was 400 nM; on PI3K-γ (read-out: IC50 PI3Kγ), 5900 nM.
For `O=C(NCCO)Nc1ccc(-c2nc(Nc3ccc(N4CCNCC4)cc3)nc(N3CC4CCC(C3)O4)n2)cc1` [Example 328, 1-(2-hydroxyethyl)-3-(4-{4-(8-oxa-3-azabicyclo[3.2.1]oct-3-yl)-6-[(4-piperazin-1-ylphenyl)amino]-1,3,5-triazin-2-yl}phenyl)urea], in that order: 261 nM, 4.6 nM, 1500 nM and 14000 nM.
In the case of `NC(=O)c1ccc(NC(=O)Nc2ccc(-c3nc(Nc4ccc(N5CCNCC5)cc4)nc(N4CC5CCC(C4)O5)n3)cc2)cc1` [Example 329, 4-{[(4-{4-(8-oxa-3-azabicyclo[3.2.1]oct-3-yl)-6-[(4-piperazin-1-ylphenyl)amino]-1,3,5-triazin-2-yl}phenyl)carbamoyl]amino}benzamide], the IC50 on PI3K-α is 9.5 nM; at PI3K-α (listed as 358), 9 nM; at Human mTOR (FLAG-TOR), 0.68 nM; in test [1], 5900 nM; on PI3K-γ (read-out: IC50 PI3Kγ), 385 nM; on PI3K-γ (read-out: IC50 PI3Kγ, listed as 358) it was 363 nM.
Regarding `O=C(Nc1ccccc1)Nc1ccc(-c2nc(Nc3ccc(N4CCNCC4)cc3)nc(N3CC4CCC(C3)O4)n2)cc1` [Example 330, 1-(4-{4-(8-oxa-3-azabicyclo[3.2.1]oct-3-yl)-6-[(4-piperazin-1-ylphenyl)amino]-1,3,5-triazin-2-yl}phenyl)-3-phenylurea], the IC50 was 42 nM at PI3K-α; 3.3 nM and 3.4 nM on Human mTOR (FLAG-TOR); 260 nM in test [1]; 827 nM at PI3K-γ (read-out: IC50 PI3Kγ).
In the case of `CN(C)CC(=O)Nc1ccc(NC(=O)Nc2ccc(-c3nc(N4CC5CCC(C4)O5)nc(N4CC5CCC(C4)O5)n3)cc2)cc1` [Example 352, N-[4-({[4-(4,6-di-8-oxa-3-azabicyclo[3.2.1]oct-3-yl-1,3,5-triazin-2-yl)phenyl]carbamoyl}amino)phenyl]-N2,N2-dimethylglycinnamide], the IC50 at PI3K-α is 13.5 nM; at Human mTOR (FLAG-TOR), 0.24 nM; in test [1], less than 0.8 nM; at PI3K-γ (read-out: IC50 PI3Kγ) it was 732 nM.
The matching figures for `O=C(CN1CCCC1)Nc1ccc(NC(=O)Nc2ccc(-c3nc(N4CC5CCC(C4)O5)nc(N4CC5CCC(C4)O5)n3)cc2)cc1` [Example 353, N-[4-({[4-(4,6-di-8-oxa-3-azabicyclo[3.2.1]oct-3-yl-1,3,5-triazin-2-yl)phenyl]carbamoyl}amino)phenyl]-2-pyrrolidin-1-ylacetamide]: 8.5 nM, 0.22 nM, less than 0.8 nM and 501 nM.
Turning to `CCNC(=O)Nc1ccc(-c2nc(NC3CCNCC3)nc(N3C4CCC3COC4)n2)cc1` [Example 360, 1-(4-(4-(3-oxa-8-azabicyclo[3.2.1]octan-8-yl)-6-(piperidin-4-ylamino)-1,3,5-triazin-2-yl)phenyl)-3-ethylurea], the IC50 at PI3K-α was 6670 nM; on Human mTOR (FLAG-TOR), 82 nM; in test [1], 10000 nM; at PI3K-γ, greater than 10000 nM.
In the case of `O=C(Nc1ccc(CN2CCNCC2)cc1)Nc1ccc(-c2nc(N3C4CCC3COC4)nc(N3C4CCC3COC4)n2)cc1` [Example 366, 1-(4-(4,6-di(3-oxa-8-azabicyclo[3.2.1]octan-8-yl)-1,3,5-triazin-2-yl)phenyl)-3-(4-(piperazin-1-ylmethyl)phenyl)urea], the IC50 on PI3K-α came out at 585 nM; on Human mTOR (FLAG-TOR), 1.1 nM; in test [1], 2.8 nM; on PI3K-γ (read-out: IC50 PI3Kγ), 3000 nM.
As for `NCc1ccc(NC(=O)Nc2ccc(-c3nc(N4C5CCC4COC5)nc(N4C5CCC4COC5)n3)cc2)cc1` [Example 368, 1-(4-(aminomethyl)phenyl)-3-(4-(4,6-di(3-oxa-8-azabicyclo[3.2.1]octan-8-yl)-1,3,5-triazin-2-yl)phenyl)urea], the IC50 is 109 nM at PI3K-α, 0.68 nM at Human mTOR (FLAG-TOR), 0.7 nM in test [1] and 1940 nM on PI3K-γ (read-out: IC50 PI3Kγ).
The matching figures for `O=C(Nc1ccc(CN2CCCC2)cc1)Nc1ccc(-c2nc(N3C4CCC3COC4)nc(N3C4CCC3COC4)n2)cc1` [Example 369, 1-(4-(4,6-di(3-oxa-8-azabicyclo[3.2.1]octan-8-yl)-1,3,5-triazin-2-yl)phenyl)-3-(4-(pyrrolidin-1-ylmethyl)phenyl)urea]: 362 nM, 1.3 nM, 3 nM and 2560 nM.
The matching figures for `CN(C)CC(=O)Nc1ccc(NC(=O)Nc2ccc(-c3nc(N4C5CCC4COC5)nc(N4C5CCC4COC5)n3)cc2)cc1` [Example 373, N-(4-(3-(4-(4,6-di(3-oxa-8-azabicyclo[3.2.1]octan-8-yl)-1,3,5-triazin-2-yl)phenyl)ureido)phenyl)-2-(dimethylamino)acetamide]: 70 nM, 0.16 nM, 1 nM and 2960 nM.
The matching figures for `CN1CCN(CC(=O)Nc2ccc(NC(=O)Nc3ccc(-c4nc(N5C6CCC5COC6)nc(N5C6CCC5COC6)n4)cc3)cc2)CC1` [Example 374, N-(4-(3-(4-(4,6-di(3-oxa-8-azabicyclo[3.2.1]octan-8-yl)-1,3,5-triazin-2-yl)phenyl)ureido)phenyl)-2-(4-methylpiperazin-1-yl)acetamide]: 64 nM, 0.14 nM, less than 0.8 nM and 3920 nM.
As for `O=C(CN1CCCC1)Nc1ccc(NC(=O)Nc2ccc(-c3nc(N4C5CCC4COC5)nc(N4C5CCC4COC5)n3)cc2)cc1` [Example 375, N-(4-(3-(4-(4,6-di(3-oxa-8-azabicyclo[3.2.1]octan-8-yl)-1,3,5-triazin-2-yl)phenyl)ureido)phenyl)-2-(pyrrolidin-1-yl)acetamide], the IC50 was 44 nM on PI3K-α, 0.15 nM on Human mTOR (FLAG-TOR), less than 0.8 nM in test [1] and 2590 nM on PI3K-γ (read-out: IC50 PI3Kγ).
Consider `CC(C)Nc1nc(-c2ccc(NC(=O)Nc3cccnc3)cc2)nc(N2C3CCC2COC3)n1` [Example 376, 1-(4-(4-(3-oxa-8-azabicyclo[3.2.1]octan-8-yl)-6-(isopropylamino)-1,3,5-triazin-2-yl)phenyl)-3-(pyridin-3-yl)urea], for which the IC50 on PI3K-α is 2600 nM; on Human mTOR (FLAG-TOR) it was 2.3 nM; in test [1], 50 nM; against PI3K-γ, greater than 10000 nM.
For the compound `CC(C)Nc1nc(-c2ccc(NC(=O)Nc3ccncc3)cc2)nc(N2C3CCC2COC3)n1` [Example 377, 1-(4-(4-(3-oxa-8-azabicyclo[3.2.1]octan-8-yl)-6-(isopropylamino)-1,3,5-triazin-2-yl)phenyl)-3-(pyridin-4-yl)urea], the IC50 at PI3K-α turned out to be 2610 nM; on Human mTOR (FLAG-TOR), 3.9 nM; in test [1] it was 90 nM; at PI3K-γ (read-out: IC50 PI3Kγ), 4720 nM.
